# Assay results taken from US20170253607A1, “LONG-ACTING HIV PROTEASE INHIBITOR” (Shionogi & Co., Ltd., priority 2014, published 2017).
# Target: HIV-1 PR (Human immunodeficiency virus type 1 group M subtype B, UniProt P04585)
# Assay: HIV-protease inhibitory activity assay (FRET peptide substrate)
# Assay type: biochemical
# Settings: Test Example 1
# Description: Test Example 1: HIV-Protease Inhibitory Activity Assay
# The HIV-1 PR assay was performed by using a FRET (Fluorescence Resonance Energy Transfer) peptide substrate (AnaSpec, Inc., Fremont, Calif.). Initially in the intact FRET peptide, the fluorescence of HiLyte Fluor 488 is quenched by QXL 520. Upon substrate cleavage by PR, the fluorescence is recovered and can be monitored. Test compounds diluted in DMSO was plated to the wells of 384-well plate. Then, mixed with assay buffer (0.1 mol/L NaAc containing 0.5 mol/L NaCl, 1 mmol/L EDTA, 1 mmol/L DTT, and 0.05% Tween 20, pH 4.8) in the presence or absence of HIV-1 PR (0.83 ng), and let it stand for 5 minutes at room temperature. Background fluorescence intensity was measured and let it stand for another 15 minutes at room temperature. The enzyme reaction was started by adding substrate diluted in assay buffer at final concentration of 2 μmol/L, and let it stand for 60 minutes at room temperature. After 60 minutes, the fluorescence intensity was measured. Fluorescence intensity was measured with excitation and emission wavelengths of 485 nm and 535 nm, respectively.
# IC50 values were determined using non-linear regression four-parameter logistic equation, y=A+((B−A)/(1+((C/x)̂D))) where A=minimum inhibition, B=maximum inhibition, C=log IC50, D=slope factor, x=concentration of compound and y=% inhibition.
row,SMILES,IC50
1,COc1ccc(S(=O)(=O)N(CC2CCC2)CC(O)C(Cc2ccc(NCc3ccccc3C(=O)Nc3sc4c(c3C(=O)O)CC(C)(C)CC4)cc2)NC(=O)OC2COC3(C)OCCC23O)cc1 (centres unmarked) [Compound I-893],5.83 nM
2,COc1ccc(S(=O)(=O)N(CC(C)C)CC(O)C(Cc2ccc(NCc3cc(OC)cc(-c4sc5c(c4C(=O)O)CC(C)(C)CC5)c3OC)cc2)NC(=O)OC2COC3(C)OCCC23)cc1 (centres unmarked) [Compound I-553],1.92 nM
3,COc1ccc(S(=O)(=O)N(CC(C)C)CC(O)C(Cc2ccc(N3CCN(C(=O)c4sc5c(c4C(=O)O)CC(C)(C)CC5)CC3)cc2)NC(=O)OC2COC3(C)OCCC23)cc1 (centres unmarked) [Compound I-224],1.96 nM
4,COc1ccc(S(=O)(=O)N(CC(C)C)CC(O)C(Cc2ccc(NCc3ccccc3-c3c(C(=O)O)[nH]c4ccc(OC)cc34)cc2)NC(=O)OC2COC3(C)OCCC23)cc1 (centres unmarked) [Compound I-506],1.7 nM
5,COc1ccc(S(=O)(=O)N(CC(C)C)CC(O)C(Cc2ccc(NCc3ccccc3-c3ccc(-c4sc5c(c4C(=O)O)CC(C)(C)CC5)nc3)cc2)NC(=O)OC2COC3(C)OCCC23)cc1 (centres unmarked) [Compound I-713],1.69 nM
6,COc1ccc(S(=O)(=O)N(CC(C)C)CC(O)C(Cc2ccc(N(C)Cc3cc(C)ccc3C(=O)Nc3sc4c(c3C(=O)O)CC(C)(C)CC4)cc2)NC(=O)OC2COC3(C)OCCC23)cc1 (centres unmarked) [Compound I-746],2.81 nM
7,COc1ccc(S(=O)(=O)N(CC(C)C)CC(O)C(Cc2ccc(OCC3=C(c4sc5c(c4C(=O)O)CC(C)(C)CC5)COC3)cc2)NC(=O)OC2COC3(C)OCCC23)cc1 (centres unmarked) [Compound I-385],1.25 nM
8,COc1ccc(S(=O)(=O)N(CC(C)C)CC(O)C(Cc2ccc(N(C)Cc3ccccc3-c3ccc(NC(=O)CC4CC(C)(C)CCC4=O)cc3)cc2)NC(=O)OC2COC3(C)OCCC23)cc1 (centres unmarked) [Compound I-772],21 nM
9,COc1ccc(S(=O)(=O)N(CC(C)C)CC(O)C(Cc2ccc(NCc3ccccc3-c3sc4c(c3C(=O)O)C(=O)CCC4)cc2)NC(=O)OC2COC3(C)OCCC23)cc1 (centres unmarked) [Compound I-367],2.61 nM
10,COc1ccc(S(=O)(=O)N(CC(C)C)C[C@@H](O)[C@H](Cc2ccccc2)NC(=O)O[C@H]2CO[C@@]3(CNC(=O)/C=C/c4sc5c(c4C(=O)O)CC(C)(C)CC5)OCC[C@@H]23)cc1 [Compound I-31],0.73 nM
11,COc1ccc(S(=O)(=O)N(CC(C)C)CC(O)C(Cc2ccc(N3CCC(Oc4ccccc4C(=O)Nc4sc5c(c4C(=O)O)CC(C)(C)CC5)C3)cc2)NC(=O)OC2COC3(C)OCCC23)cc1 (centres unmarked) [Compound I-595],2.17 nM
12,COc1ccc(S(=O)(=O)N(CC(C)C)CC(O)C(Cc2ccc(NCc3nc4ccccc4cc3C(=O)Nc3sc4c(c3C(=O)O)CC(C)(C)CC4)cc2)NC(=O)OC2COC3(C)OCCC23)cc1 (centres unmarked) [Compound I-774],6.26 nM
13,COc1ccc(S(=O)(=O)N(CC(C)C)CC(O)C(Cc2ccc(OCc3ccccc3-c3sc(Cl)c(-c4ccccc4)c3C(=O)O)cc2)NC(=O)OC2COC3OCCC23)cc1 (centres unmarked) [Compound I-849],0.78 nM
14,COc1ccc(S(=O)(=O)N(CC(C)C)CC(O)C(Cc2ccc(NCc3ccc(Oc4ccc(-c5sc6c(c5C(=O)O)CC(C)(C)CC6)cc4)cc3)cc2)NC(=O)OC2COC3(C)OCCC23)cc1 (centres unmarked) [Compound I-564],14.2 nM
15,COc1ccc(S(=O)(=O)N(CC(C)C)C[C@@H](O)[C@H](Cc2ccc(OCc3ccc(-c4ccc(F)cc4F)cc3C(=O)NC(N)=O)cc2)NC(=O)O[C@H]2CO[C@@]3(C)OCC[C@@H]23)cc1 [Compound I-24],1.39 nM
16,CC(C)CN(CC(O)C(Cc1ccc(CCc2sc3c(c2C(=O)O)CC(C)(C)CC3)cc1)NC(=O)OC1COC2OCCC12)S(=O)(=O)c1ccc2ncsc2c1 (centres unmarked) [Compound I-831],1.49 nM
17,CCCN(Cc1ccccc1-c1sc2c(c1C(=O)O)CC(C)(C)CC2)c1ccc(CC(NC(=O)OC2COC3(C)OCCC23)C(O)CN(CC(C)C)S(=O)(=O)c2ccc(OC)cc2)cc1 (centres unmarked) [Compound I-462],3.33 nM
18,COc1ccc(S(=O)(=O)N(CC(C)C)CC(O)C(Cc2ccc(N3CCN(c4ccc(C#N)cc4-c4sc5c(c4C(=O)O)CC(C)(C)CC5)CC3)cc2)NC(=O)OC2COC3(C)OCCC23)cc1 (centres unmarked) [Compound I-232],4.1 nM
19,COc1ccc(S(=O)(=O)N(CC(C)C)CC(O)C(Cc2ccc(N(C)Cc3ccc(N4CCCCC4=O)cc3-c3sc4c(c3C(=O)O)CC(C)(C)CC4)cc2)NC(=O)OC2COC3(C)OCCC23)cc1 (centres unmarked) [Compound I-743],2.32 nM
20,CC(C)CN(CC(O)C(Cc1ccc(OCCOc2ccc(-c3ccc(F)cc3F)cc2C(=O)O)cc1)NC(=O)OC1COC2OCCC12)S(=O)(=O)c1ccc2ncsc2c1 (centres unmarked) [Compound I-814],0.75 nM
21,CC(C)CN(CC(O)C(Cc1ccc(OCc2cc(-c3ccc(F)cc3F)ccc2C(=O)O)cc1)NC(=O)OC1COC2(C)OCCC12)S(=O)(=O)c1ccc2ncsc2c1 (centres unmarked) [Compound I-61],1.9 nM

row,SMILES,IC50
1,COc1ccc(S(=O)(=O)N(CC(C)C)CC(O)C(Cc2ccc(NCc3cc(O)cc(-c4sc5c(c4C(=O)O)CC(C)(C)CC5)c3)cc2)NC(=O)OC2COC3(C)OCCC23)cc1 (centres unmarked) [Compound I-562],1.98 nM
2,COc1ccc(S(=O)(=O)N(CC(C)C)CC(O)C(Cc2ccc(OCc3ccccc3-n3nc(C(=O)O)c4c3CCC(C(F)(F)F)C4)cc2)NC(=O)OC2COC3(C)OCCC23)cc1 (centres unmarked) [Compound I-142],1.72 nM
3,COc1ccc(S(=O)(=O)N(CC(C)C)CC(O)C(Cc2ccc(NCc3ccc(-c4sc5c(c4C(=O)O)CC(C)(C)CC5)cn3)cc2)NC(=O)OC2COC3(C)OCCC23)cc1 (centres unmarked) [Compound I-290],2.08 nM
4,COc1ccc(S(=O)(=O)N(CC(C)C)CC(O)C(Cc2ccc(OC3CCN(c4ccc(C#N)cc4-c4sc5c(c4C(=O)O)CC(C)(C)CC5)CC3)cc2)NC(=O)OC2COC3(C)OCCC23)cc1 (centres unmarked) [Compound I-201],10.2 nM
5,COc1ccc(S(=O)(=O)N(CC(C)C)CC(O)C(Cc2ccc(N(C)Cc3cc(Cl)ccc3C(=O)Nc3sc4c(c3C(=O)O)CC(C)(C)CC4)cc2)NC(=O)OC2COC3(C)OCCC23)cc1 (centres unmarked) [Compound I-658],13.7 nM
6,COc1ccc(S(=O)(=O)N(CC(C)C)CC(O)C(Cc2ccc(OCc3ccccc3NC(=O)Nc3sc4c(c3C(=O)O)CC(C)(C)CC4)cc2)NC(=O)OC2COC3(C)OCCC23)cc1 (centres unmarked) [Compound I-229],3.7 nM
7,COc1ccc(S(=O)(=O)N(CC2CC2)CC(O)C(Cc2ccc(NCc3ccccc3-c3sc4c(c3C(=O)O)CC(C)(C)CC4)cc2)NC(=O)OC2COC3(C)OCCC23)cc1 (centres unmarked) [Compound I-472],2.27 nM
8,CC(C)CN(CC(O)C(Cc1ccc(N(C)Cc2ccccc2C(=O)Nc2sc3c(c2C(=O)O)CC(C)(C)CC3)cc1)NC(=O)OC1COC2OCCC12)S(=O)(=O)c1ccc2c(c1)OCO2 (centres unmarked) [Compound I-879],3.78 nM
9,COc1ccc(S(=O)(=O)N(CC(C)C)CC(O)C(Cc2ccc(NCc3cnc4ccc(-c5sc6c(c5C(=O)O)CC(C)(C)CC6)cn34)cc2)NC(=O)OC2COC3(C)OCCC23)cc1 (centres unmarked) [Compound I-286],2.06 nM
10,COc1ccc(S(=O)(=O)N(CC(C)C)CC(O)C(Cc2ccc(N(C)Cc3cnc4sccc4c3-c3sc4c(c3C(=O)O)CC(C)(C)CC4)cc2)NC(=O)OC2COC3(C)OCCC23)cc1 (centres unmarked) [Compound I-702],2.15 nM
11,COc1ccc(S(=O)(=O)N(CC(C)C)CC(O)C(Cc2ccc(OCc3ccccc3OCC(=O)O)cc2)NC(=O)OC2COC3(C)OCCC23)cc1 (centres unmarked) [Compound I-311],1.88 nM
12,COc1ccc(S(=O)(=O)N(CC(C)C)CC(O)C(Cc2ccc(N(C)Cc3ccc(Oc4ccc(-c5sc6c(c5C(=O)O)CC(C)(C)CC6)c(C)c4)cc3)cc2)NC(=O)OC2COC3(C)OCCC23)cc1 (centres unmarked) [Compound I-572],30 nM
13,COc1ccc(S(=O)(=O)N(CC(C)C)CC(O)C(Cc2ccc(NCc3cccc(-c4ccccc4)c3-c3sc4c(c3C(=O)O)CC(C)(C)CC4)cc2)NC(=O)OC2COC3(C)OCCC23)cc1 (centres unmarked) [Compound I-529],4.98 nM
14,COc1ccc(S(=O)(=O)N(CC(C)C)CC(O)C(Cc2ccc(NCc3ccc(C(=O)Nc4sc5c(c4C(=O)O)CC(C)(C)CC5)o3)cc2)NC(=O)OC2COC3(C)OCCC23)cc1 (centres unmarked) [Compound I-438],2.55 nM
15,COc1ccc(S(=O)(=O)N(CC(C)C)CC(O)C(Cc2ccc(NCc3ccc(C(=O)Nc4sc5c(c4C(=O)O)CC(C)(C)CC5)s3)cc2)NC(=O)OC2COC3(C)OCCC23)cc1 (centres unmarked) [Compound I-441],2.61 nM
16,COc1ccc(S(=O)(=O)N(CC(C)C)CC(O)C(Cc2ccc(NCc3ccc(N4CC(C)(C)C4=O)cc3-c3sc4c(c3C(=O)O)CC(C)(C)CC4)cc2)NC(=O)OC2COC3(C)OCCC23)cc1 (centres unmarked) [Compound I-740],1.6 nM
17,COc1ccc(S(=O)(=O)N(CC(C)C)CC(O)C(Cc2ccc(OCc3ccc(C#N)cc3-c3sc4c(c3C(=O)O)CC(C)(C)CC4)cc2)NC(=O)OC2COC3(C)OCCC23)cc1 (centres unmarked) [Compound I-80],1.75 nM
18,COc1ccc(S(=O)(=O)N(CC(C)C)CC(O)C(Cc2ccc(N(C)CC3=C(c4sc5c(c4C(=O)O)CC(C)(C)CC5)CCC(F)(F)C3)cc2)NC(=O)OC2COC3(C)OCCC23)cc1 (centres unmarked) [Compound I-706],6.62 nM
19,CC(C)CN(CC(O)C(Cc1ccc(OCc2cc(C(=O)O)ccc2-c2ccc(F)cc2F)cc1)NC(=O)OC1COC2(C)OCCC12)S(=O)(=O)c1ccc2ncsc2c1 (centres unmarked) [Compound I-151],1.88 nM
20,COc1ccc(S(=O)(=O)N(CC(C)C)CC(O)C(Cc2ccc(OC3CCN(Cc4ccccc4-c4sc5c(c4C(=O)O)CC(C)(C)CC5)C3)cc2)NC(=O)OC2COC3(C)OCCC23)cc1 (centres unmarked) [Compound I-207],2.1 nM
